The source made the active and inactive calls. The rule behind the calls is not given here.
Legend:
[1] = Stability in simulated intestinal fluid assessed as half-life; type: physicochemical
[2] = target: P2Y purinoceptor 1 (Homo sapiens) (UniProt P47900); assay: Antagonist activity at human P2Y1R stably expressed in HEK293 cells assessed as inhibition of ADP-induced IP3 accumulation preincubated with compound for 30 mins followed by ADP addition by ELISA; type: functional, cell-based
Mus musculus [3] = assay: Anti-inflammatory activity in LPS-induced male C57BL/6 mouse model of acute […] injury assessed as improvement in pulmonary edema by measuring reduction in wet to dry ratio of lung at 2 to 6 mg/kg, IG preadministered with compound for 7 days followed by LPS administration and measured after 24 hrs; type: functional, organism-based; conditions: dose 2-6 mg/kg, time 8.0 day
[4] = Stability in simulated gastric fluid assessed as half-life; type: physicochemical
Mus musculus [5] = assay: Anti-inflammatory activity in LPS-induced male C57BL/6 mouse model of acute […] injury assessed as reduction in infiltration of immune cells by measuring decrease in neutrophil count at 2 to 6 mg/kg, IG preadministered with compound for 7 days followed by LPS administration and measured after 24 hrs; type: functional, organism-based; conditions: dose 2-6 mg/kg, time 8.0 day
[6] = Metabolic stability in human liver microsomes assessed as intrinsic clearance preincubated for 10 mins followed by NADPH addition and measured upto 60 mins by LC-MS/MS analysis; type: ADME, Microsome; conditions: time < 70 min, read-out: CLH
Cytochrome P450 2C9 = Cytochrome P450 2C9 (Homo sapiens, UniProt P11712); assay: Inhibition of CYP2C9 in human liver microsomes using diclofenac as substrate preincubated for 10 mins followed by NADPH addition and measured after 10 mins by LC-MS/MS analysis; type: ADME, Microsome
Chain of Cytochrome P450 2C9 (P11712 whole entry): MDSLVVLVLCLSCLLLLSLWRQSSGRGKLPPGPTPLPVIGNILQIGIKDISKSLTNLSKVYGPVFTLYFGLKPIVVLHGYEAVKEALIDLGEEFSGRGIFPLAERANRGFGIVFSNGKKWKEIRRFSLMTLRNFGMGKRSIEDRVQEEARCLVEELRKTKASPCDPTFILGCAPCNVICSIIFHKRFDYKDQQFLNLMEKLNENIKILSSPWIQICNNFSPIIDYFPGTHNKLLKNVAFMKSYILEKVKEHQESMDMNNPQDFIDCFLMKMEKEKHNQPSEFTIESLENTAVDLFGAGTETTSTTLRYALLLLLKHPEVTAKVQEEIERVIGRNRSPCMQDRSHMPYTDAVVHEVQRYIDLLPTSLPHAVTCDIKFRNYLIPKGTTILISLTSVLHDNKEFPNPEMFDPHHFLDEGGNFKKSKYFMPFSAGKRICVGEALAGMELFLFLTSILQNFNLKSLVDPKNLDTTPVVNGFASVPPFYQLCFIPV

P2Y purinoceptor 6 = P2Y purinoceptor 6 (Homo sapiens, UniProt Q15077); assay: Antagonist activity at human P2Y6R expressed in CHO cells assessed as inhibition of UDP sodium salt-induced Ca2+ level by FLIPR calcium 6 assay; type: functional, cell-based
Chain of P2Y purinoceptor 6 (Q15077 whole entry): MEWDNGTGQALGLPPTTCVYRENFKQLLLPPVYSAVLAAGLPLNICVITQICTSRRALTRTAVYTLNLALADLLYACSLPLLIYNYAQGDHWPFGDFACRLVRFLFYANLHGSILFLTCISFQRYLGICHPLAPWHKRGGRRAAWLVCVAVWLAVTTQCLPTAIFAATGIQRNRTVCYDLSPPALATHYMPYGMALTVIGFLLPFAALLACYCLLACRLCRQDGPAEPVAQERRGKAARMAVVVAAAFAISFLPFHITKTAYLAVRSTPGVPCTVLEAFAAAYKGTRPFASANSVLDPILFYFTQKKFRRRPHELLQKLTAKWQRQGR

Cytochrome P450 1A2 = target: T1, Cytochrome P450 1A2 (Homo sapiens, UniProt P05177); assay: Inhibition of CYP1A2 in human liver microsomes using phenacetin as substrate preincubated for 10 mins followed by NADPH addition and measured after 10 mins by LC-MS/MS analysis; type: ADME, Microsome
T1 sequence (P05177 whole entry): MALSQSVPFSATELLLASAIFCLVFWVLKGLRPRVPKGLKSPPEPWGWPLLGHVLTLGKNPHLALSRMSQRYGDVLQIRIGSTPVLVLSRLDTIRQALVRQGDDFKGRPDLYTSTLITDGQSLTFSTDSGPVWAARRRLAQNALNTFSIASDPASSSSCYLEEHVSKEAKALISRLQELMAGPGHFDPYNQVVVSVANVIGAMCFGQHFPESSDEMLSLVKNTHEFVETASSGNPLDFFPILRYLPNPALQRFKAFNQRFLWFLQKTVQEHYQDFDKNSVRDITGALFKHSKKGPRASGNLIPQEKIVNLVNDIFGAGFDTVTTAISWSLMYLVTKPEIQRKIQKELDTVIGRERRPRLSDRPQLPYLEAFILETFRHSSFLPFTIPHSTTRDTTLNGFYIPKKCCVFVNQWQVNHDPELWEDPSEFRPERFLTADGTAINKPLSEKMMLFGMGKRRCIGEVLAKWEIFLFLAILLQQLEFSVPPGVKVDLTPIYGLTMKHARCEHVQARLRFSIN

[7] = Tmax in male Sprague-Dawley rat at 10 mg/kg, iv measured after 24 hrs by LC-MS/MS analysis; type: ADME, organism-based; conditions: male, Sprague-Dawley, in vivo, read-out: Tmax (converted)
[8] = Metabolic stability in human liver microsomes assessed as half-life preincubated for 10 mins followed by NADPH addition and measured upto 60 mins by LC-MS/MS analysis; type: ADME, Microsome; conditions: time < 70 min
Mus musculus [9] = assay: Anti-inflammatory activity in LPS-induced male C57BL/6 mouse model of acute […] injury assessed as reduction in IL-1beta level in BALF at 2 to 6 mg/kg, IG preadministered with compound for 7 days followed by LPS administration and measured after 24 hrs by ELISA; type: functional, organism-based; conditions: dose 2-6 mg/kg, time 8.0 day
Mus musculus [10] = assay: Anti-inflammatory activity in LPS-induced male C57BL/6 mouse model of acute […] injury assessed as reduction in IL-6 level in BALF at 2 to 6 mg/kg, IG preadministered with compound for 7 days followed by LPS administration and measured after 24 hrs by ELISA; type: functional, organism-based; conditions: dose 2-6 mg/kg, time 8.0 day
Mus musculus [11] = assay: Anti-inflammatory activity in LPS-induced male C57BL/6 mouse model of acute […] injury assessed as reduction in alveolar septa thickening in lung at 2 to 6 mg/kg, IG preadministered with compound for 7 days followed by LPS administration and measured after 24 hrs by H and E staining based histopathological analysis; type: functional, organism-based; conditions: dose 2-6 mg/kg, time 8.0 day
HUVEC = assay: Cytotoxicity against HUVEC cells assessed as reduction in cell survival at >10 uM incubated for 12 to 24 hrs by CCK8 assay; type: toxicity, cell-based; conditions: human, time 12-24 hrs
Mus musculus [12] = assay: Anti-inflammatory activity in LPS-induced male C57BL/6 mouse model of acute […] injury assessed as inhibition of CCL2 mRNA expression at 2 to 6 mg/kg, IG preadministered with compound for 7 days followed by LPS administration and measured after 24 hrs by RT-PCR analysis; type: functional, organism-based; conditions: dose 2-6 mg/kg, time 8.0 day
Mus musculus [13] = assay: Anti-inflammatory activity in LPS-induced male C57BL/6 mouse model of acute […] injury assessed as reduction in infiltration of immune cells by measuring decrease in lymphocytes count at 2 to 6 mg/kg, IG preadministered with compound for 7 days followed by LPS administration and measured after 24 hrs; type: functional, organism-based; conditions: dose 2-6 mg/kg, time 8.0 day
[14] = Oral bioavailability in male Sprague-Dawley rat at 20 mg/kg measured after 24 hrs by LC-MS/MS analysis; type: ADME, organism-based; conditions: male, Sprague-Dawley, in vivo
[15] = Half-life in male Sprague-Dawley rat at 20 mg/kg, po measured after 24 hrs by LC-MS/MS analysis; type: ADME, organism-based; conditions: male, Sprague-Dawley, in vivo
[16] = Clearance in male Sprague-Dawley rat at 20 mg/kg, po measured after 24 hrs by LC-MS/MS analysis; type: ADME, organism-based; conditions: in vivo
[17] = Half-life in male Sprague-Dawley rat at 10 mg/kg, iv measured after 24 hrs by LC-MS/MS analysis; type: ADME, organism-based; conditions: male, Sprague-Dawley, in vivo
Mus musculus [18] = assay: Anti-inflammatory activity in LPS-induced male C57BL/6 mouse model of acute […] injury assessed as reduction in tissue destruction in lung at 2 to 6 mg/kg, IG preadministered with compound for 7 days followed by LPS administration and measured after 24 hrs by H and E staining based histopathological analysis; type: functional, organism-based; conditions: dose 2-6 mg/kg, time 8.0 day
[19] = Cmax in male Sprague-Dawley rat at 10 mg/kg, iv measured after 24 hrs by LC-MS/MS analysis; type: ADME, organism-based; conditions: male, Sprague-Dawley, in vivo, read-out: Cmax
Mus musculus [20] = assay: In vivo inhibition of NLRP3 activation in LPS-induced male C57BL/6 mouse model of acute […] injury assessed as reduction in NLRP3 level in lung at 2 to 6 mg/kg, IG preadministered with compound for 7 days followed by LPS administration and measured after 24 hrs by Western blot analysis; type: functional, organism-based; conditions: dose 2-6 mg/kg, time 8.0 day
Cytochrome P450 2D6 = Cytochrome P450 2D6 (Homo sapiens, UniProt P10635); assay: Inhibition of CYP2D6 in human liver microsomes using […] as substrate preincubated for 10 mins followed by NADPH addition and measured after 10 mins by LC-MS/MS analysis; type: ADME, Microsome
Chain of Cytochrome P450 2D6 (P10635 whole entry): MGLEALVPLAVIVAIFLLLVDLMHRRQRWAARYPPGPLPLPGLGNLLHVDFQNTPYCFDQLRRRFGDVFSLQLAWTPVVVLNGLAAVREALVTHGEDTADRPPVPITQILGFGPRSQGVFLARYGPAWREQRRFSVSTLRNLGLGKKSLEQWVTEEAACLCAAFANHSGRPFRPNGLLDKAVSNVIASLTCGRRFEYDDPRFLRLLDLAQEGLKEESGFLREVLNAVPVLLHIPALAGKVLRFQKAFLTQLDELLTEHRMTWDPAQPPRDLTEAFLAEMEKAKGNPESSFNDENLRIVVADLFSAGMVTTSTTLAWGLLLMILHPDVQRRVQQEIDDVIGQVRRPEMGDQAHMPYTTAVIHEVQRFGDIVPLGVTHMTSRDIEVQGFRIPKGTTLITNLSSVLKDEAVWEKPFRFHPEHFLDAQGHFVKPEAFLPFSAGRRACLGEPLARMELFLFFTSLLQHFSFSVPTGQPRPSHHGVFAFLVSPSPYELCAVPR

Chain of P2Y purinoceptor 1 (Homo sapiens) (P47900 whole entry): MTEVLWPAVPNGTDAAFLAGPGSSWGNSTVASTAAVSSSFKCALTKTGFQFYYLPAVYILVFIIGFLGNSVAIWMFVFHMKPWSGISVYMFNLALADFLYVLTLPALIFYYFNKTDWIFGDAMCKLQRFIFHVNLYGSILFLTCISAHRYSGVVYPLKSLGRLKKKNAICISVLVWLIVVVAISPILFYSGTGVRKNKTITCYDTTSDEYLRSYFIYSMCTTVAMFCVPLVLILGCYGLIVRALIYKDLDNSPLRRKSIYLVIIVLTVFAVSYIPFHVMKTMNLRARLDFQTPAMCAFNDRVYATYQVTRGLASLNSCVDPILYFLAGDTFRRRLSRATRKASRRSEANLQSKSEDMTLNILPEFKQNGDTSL

O=C(O)CCC(=O)N1N=C(c2ccc[nH]2)CC1c1cnc2ccccc2c1 (stereo not given)
half-life [1]: > 5 h | Activity [2]: inactive | Activity (Mus musculus [3]): Active | half-life [4]: > 50 h | Activity (Mus musculus [5]): Active | microsomal CLint [6]: 18.6 µL/min/mg | IC50 (Cytochrome P450 2C9): 23.6 µM | IC50 (P2Y purinoceptor 6): 0.0196 µM | IC50 (Cytochrome P450 1A2): > 50 µM | Tmax [7]: 0.467 h | half-life [8]: 3.55 h | Activity (Mus musculus [9]): Active | Activity (Mus musculus [10]): Active | Activity (Mus musculus [11]): Active | Activity (HUVEC): Non-Toxic | Activity (Mus musculus [12]): Active | Activity (Mus musculus [13]): Active | bioavailability [14]: 43% | half-life [15]: 5.2 h | CL/F [16]: 28.3 mL/min/kg | half-life [17]: 1.5 h | Activity (Mus musculus [18]): Active | Cmax [19]: 1410 ng/mL | inhibition (Mus musculus [20]): Active | IC50 (Cytochrome P450 2D6): > 50 µM
